Where only a bound is given, the exact number is not on record here.

Test [1] addresses T1, human muscarinic M1 receptor (Homo sapiens, UniProt P11229).
T1 sequence (P11229 1-460): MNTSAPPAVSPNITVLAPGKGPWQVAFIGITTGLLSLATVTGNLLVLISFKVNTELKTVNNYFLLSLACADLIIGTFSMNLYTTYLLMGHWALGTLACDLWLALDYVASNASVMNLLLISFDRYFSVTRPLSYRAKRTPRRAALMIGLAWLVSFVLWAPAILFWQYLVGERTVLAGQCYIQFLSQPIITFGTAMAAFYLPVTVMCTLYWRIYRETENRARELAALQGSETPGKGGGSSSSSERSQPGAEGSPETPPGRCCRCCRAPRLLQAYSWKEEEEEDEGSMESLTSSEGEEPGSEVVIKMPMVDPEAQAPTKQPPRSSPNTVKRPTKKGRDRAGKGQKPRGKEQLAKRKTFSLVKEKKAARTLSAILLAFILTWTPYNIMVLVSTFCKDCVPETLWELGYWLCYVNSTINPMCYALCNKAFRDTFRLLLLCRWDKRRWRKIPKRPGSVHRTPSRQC
Description: Alphascreen Surefire phospho-ERK1/2 functional assay, M1. Type of test: cell-based. The note with it: for EC50: CHO cells stably expressing human M1, read-out: pEC50 M1 (converted); for Emax: CHO, read-out: % Emax cf. ACh, M1, CHO cells stably expressing human M1, relative to ACh; for % Emax cf. ACh, M1: CHO cells stably expressing human M1, relative to ACh. How it is done: (§1) ERK1/2 phosphorylation is a downstream consequence of both Gq/11 and Gi/o protein coupled receptor activation, making it highly suitable for the assessment of M1, M3 (Gq/11 coupled) and M2, M4 receptors (Gi/o coupled), rather than using different assay formats for different receptor subtypes. CHO cells stably expressing the human muscarinic M1, M2, M3 or M4 receptor were plated (25K/well) onto 96-well tissue culture plates in MEM-alpha+10% dialysed FBS. Once adhered, cells were serum-starved overnight. Agonist stimulation was performed by the addition of 5 μL agonist to the cells for 5 min (37° C.). Media was removed and 50 μL of lysis buffer added. […] Plates were incubated for 2 h with gentle agitation in the dark and then read on a PHERAstar plate reader.
(§2) pEC50 and Emax figures were calculated from the resulting data for each receptor subtype.
(Bead proximity is the source of the signal in Alpha formats.)

In test [2] the target is T2, human muscarinic M4 receptor (Homo sapiens, UniProt P08173).
T2 construct: expressed in transfected cells
T2 sequence (P08173 1-479): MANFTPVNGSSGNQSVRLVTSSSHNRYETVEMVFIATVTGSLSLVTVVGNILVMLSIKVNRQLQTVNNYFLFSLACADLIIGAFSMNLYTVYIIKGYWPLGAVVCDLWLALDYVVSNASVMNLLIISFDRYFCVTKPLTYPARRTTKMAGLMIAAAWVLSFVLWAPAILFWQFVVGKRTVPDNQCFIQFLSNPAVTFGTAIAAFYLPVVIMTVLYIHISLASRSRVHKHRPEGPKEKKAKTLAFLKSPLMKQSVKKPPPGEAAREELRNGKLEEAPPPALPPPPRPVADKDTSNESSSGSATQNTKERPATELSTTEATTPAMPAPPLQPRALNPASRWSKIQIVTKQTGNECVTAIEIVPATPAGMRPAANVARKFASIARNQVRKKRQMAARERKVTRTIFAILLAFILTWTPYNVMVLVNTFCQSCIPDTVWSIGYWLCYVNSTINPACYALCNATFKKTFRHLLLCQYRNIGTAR
The experiment in a line: Alphascreen Surefire phospho-ERK1/2 functional assay, M4. The test is classed as cell-based. The note with it: for EC50: CHO cells stably expressing human M4, read-out: pEC50 M4 (converted); for Emax: CHO, read-out: % Emax cf. ACh, M4, CHO cells stably expressing human M4, relative to ACh; for % Emax cf. ACh, M4: CHO cells stably expressing human M4, relative to ACh. The method, then:
as §1, §2

By Emax is commonly meant the greatest response seen or fitted, relative to the assay's reference. Consider `CCOC(=O)N1[C@@H]2CC[C@H]1CC(N1CCC3(CC1)OC(=O)NC3Cc1ccccn1)C2` (mixture of isomers) [Example 2-23, ethyl-3-(2-oxo-4-(pyridin-2-ylmethyl)-1-oxa-3,8-diazaspiro[4.5]decan-8-yl)-8-azabicyclo[3.2.1]octane-8-carboxylate], for which, in test [1], the EC50 is 501 nM and the Emax came to 86%. Further, in test [2], the EC50 is above 20000 nM and the Emax is 12%.
For the compound `COC(=O)N1C2CCC1CC(N1CCC3(CC1)CNC(=O)C3)C2` (single isomer, unassigned) [Example 2-1 Isomer 2], in test [1], the EC50 was 631 nM and the Emax amounted to 72%. Further, in test [2], the EC50 was 1580 nM and the Emax amounted to 25%.
As to `O=C1CC2(CCN(C3CC4CCC(C3)N4C(=O)OCCF)CC2)CN1` (single isomer, unassigned) [Example 2-3 Isomer 1], the figures for the EC50 in test [1] and in test [2] were 398 nM and 2000 nM, respectively. The “% Emax cf. ACh, M1” value in test [1] (listed as 2-3 Isomer 1) worked out at 85%. Moreover, the “% Emax cf. ACh, M4” value in test [2] (listed as 2-3 Isomer 1) was found to be 47%.
On to `CCCC(=O)N1C2CCC1CC(N1CCC3(CC1)CNC(=O)C3)C2` (single isomer, unassigned) [Example 2-6 Isomer 2], for which the figures for the EC50 in test [1] and in test [2] were 501 nM and 15800 nM, respectively. For the same compound, the figures for the Emax in test [1] and in test [2] were 35% and 32%, respectively.
As for `CCOC(=O)N1C2CCC1C(F)C(N1CCC3(CC1)CNC(=O)C3)C2` (single isomer, unassigned) [Example 2-11 Isomer 1], in test [1], the EC50 is 631 nM and the Emax was 95%. For the same compound, in test [2], the EC50 was 1000 nM and the Emax is 53%.
Take `CCOC(=O)N1C2CCC1CC(N1CCC3(CC1)CNC(=O)O3)C2` (single isomer, unassigned) [Example 2-14 Isomer 1]: in test [1], the EC50 is 200 nM and the Emax came out at 108%. In test [2], the EC50 is 501 nM and the Emax came to 55%.
The like results for `CCOC(=O)N1C2CCC1CC(N1CCC3(CC1)OC(=O)NC3C)C2` (single isomer, unassigned) [Example 2-15 Isomer 1] were, in that order, 100 nM, 101%, above 20000 nM and 10%.
With `CCOC(=O)N1C2CCC1CC(N1CCC3(CC1)OC(=O)NC3CC)C2` (single isomer, unassigned) [Example 2-16 Isomer 2], the EC50 is 631 nM in test [1] and 200 nM in test [2]. Also, the “% Emax cf. ACh, M1” value in test [1] (listed as 2-16 Isomer 2) came out at 68%. Also, the “% Emax cf. ACh, M4” value in test [2] (listed as 2-16 Isomer 2) worked out at 51%.
Consider `CCOC(=O)N1C2CCC1CC(N1CCC3(CC1)OC(=O)NC3(C)C)C2` (single isomer, unassigned) [Example 2-18 Isomer 1], for which, in test [1], the EC50 was 251 nM and the maximal response (Emax) was found to be 55%. In test [2], the EC50 was above 20000 nM and the Emax turned out to be 11%.
For `CCOC(=O)N1C2CCC1C(F)C(N1CCC3(CC1)CNC(=O)O3)C2` (single isomer, unassigned) [Example 2-19 Isomer 2], the results for the EC50 in test [1] and in test [2] were 1000 nM and 3980 nM, respectively. The Emax in test [1] stood at 94%; in test [2], 74%.
With `CCOC(=O)N1C2CCC1CC(N1CCC3(CC1)CC(=O)N(C(C)C)C3)C2` (single isomer, unassigned) [Example 2-26 Isomer 2], the EC50 in test [1] and in test [2] was 631 nM in each case. The Emax stood at 43% in test [1] and 22% in test [2].
With `CCOC(=O)N1C2CCC1CC(N1CCC3(CC1)CC(=O)N(CC(C)C)C3)C2` (single isomer, unassigned) [Example 2-27 Isomer 2], in test [1], the EC50 is 398 nM and the Emax came out at 38%. Further, in test [2], the EC50 was above 20000 nM and the Emax was 14%.
The like results for `CCOC(=O)N1C2CCC1CC(N1CCC3(CC1)CC(=O)N(CC1CC1)C3)C2` (single isomer, unassigned) [Example 2-28 Isomer 2] were, in that order, 501 nM, 57%, 316 nM and 27%.
Turning to `[2H]C([2H])(C)OC(=O)N1C2CCC1CC(N1CCC3(CC1)CNC(=O)C3)C2` (single isomer, unassigned) [Example 2-30 Isomer 1, (1,1-^2H2)ethyl 3-(3-oxo-2,8-diazaspiro[4.5]dec-8-yl)-8-azabicyclo[3.2.1]octane-8-carboxylate], in test [1], the EC50 is 126 nM. Besides, the “% Emax cf. ACh, M1” value in test [1] (listed as 2-30 Isomer 1) worked out at 107%. Also, in test [2], the EC50 is 200 nM and the maximal effect (Emax) stood at 49%.
On to `[2H]C([2H])([2H])COC(=O)N1C2CCC1CC(N1CCC3(CC1)CNC(=O)C3)C2` (single isomer, unassigned) [Example 2-31 Isomer 1], for which the results for the EC50 in test [1] and in test [2] were 126 nM and 251 nM, respectively. For the same compound, the “% Emax cf. ACh, M1” value in test [1] (listed as 2-31 Isomer 1) amounted to 112%. Moreover, the “% Emax cf. ACh, M4” value in test [2] (listed as 2-31 Isomer 1) was found to be 53%.
As to `CC(C)OC(=O)N1C2CCC1CC(N1CCC3(CC1)CNC(=O)C3)C2` (single isomer, unassigned) [Example 2-33 Isomer 1], in test [1], the EC50 was 31.6 nM. Moreover, in test [1] (listed as 2-33 Isomer 1), the “% Emax cf. ACh, M1” value is 37%. Moreover, in test [2], the EC50 is 200 nM and the Emax was found to be 20%.
For `CC(C)OC(=O)N1C2CCC1CC(N1CCC3(CC1)CNC(=O)C3)C2` (single isomer, unassigned) [Example 2-33 Isomer 2], in test [1], the EC50 was 398 nM. Also, the “% Emax cf. ACh, M1” value in test [1] (listed as 2-33 Isomer 2) is recorded as 62%. For the same compound, in test [2], the EC50 is 316 nM and the “% Emax cf. ACh, M4” value is recorded as 25%.
With `CSC(=O)N1C2CCC1CC(N1CCC3(CC1)CNC(=O)C3)C2` (single isomer, unassigned) [Example 2-34 Isomer 1], the EC50 in test [1] was 501 nM; in test [2], above 20000 nM. Also, the Emax was determined as 50% in test [1] and 8% in test [2].
For `CCSC(=O)N1C2CCC1CC(N1CCC3(CC1)CNC(=O)C3)C2` (single isomer, unassigned) [Example 2-35 Isomer 1], the EC50 in test [1] is 39.8 nM. Also, the “% Emax cf. ACh, M1” value in test [1] (listed as 2-35 Isomer 1) is 24%. In test [2], the EC50 is above 20000 nM and the Emax turned out to be 7%.
In the case of `CCSC(=O)N1C2CCC1CC(N1CCC3(CC1)CNC(=O)C3)C2` (single isomer, unassigned) [Example 2-35 Isomer 2], in test [1], the EC50 is 794 nM. Besides, the “% Emax cf. ACh, M1” value in test [1] (listed as 2-35 Isomer 2) amounted to 50%. The “% Emax cf. ACh, M4” value in test [2] was found to be 10%.
`CCOC(=O)N1CC2CCC1CC2N1CCC2(CC1)CNC(=O)C2` (single isomer, unassigned) [Example 3-1 Isomer 4, ethyl 5-(3-oxo-2,8-diazaspiro[4.5]dec-8-yl)-2-azabicyclo[2.2.2]octane-2-carboxylate]: the figures for the EC50 in test [1] and in test [2] were 1260 nM and above 20000 nM, respectively. The “% Emax cf. ACh, M1” value in test [1] (listed as 3-1 Isomer 4) was 62%. The “% Emax cf. ACh, M4” value in test [2] (listed as 3-1 Isomer 4) is 7%.
Turning to `CCOC(=O)N1CC2CCC1CC2N1CCC2(CC1)CNC(=O)O2` (single isomer, unassigned) [Example 3-2 Isomer 1, ethyl 5-(2-oxo-1-oxa-3,8-diazaspiro[4.5]dec-8-yl)-2-azabicyclo[2.2.2]octane-2-carboxylate], in test [1], the EC50 was 251 nM and the Emax stood at 111%. In addition, in test [2], the EC50 was 1260 nM and the Emax was determined as 29%.

For the origin of these results see patent US12202843B2, “Muscarinic receptor agonists” (Nxera Pharma UK Limited, priority 2014, dated 2025).
